Counter-ions that a name gives are not always drawn.

In one series the test system is microcystis. Nature of the series: Algal effect experiment (algal activity by cell counting). The class given is cell-based, microcystis aeruginosa. The settings on record: concentration of 1 μM or more. Here is the method:
(§1) The harmful algae algal effect at various inoculation concentrations of the compounds according to an example of the present disclosure was measured. To this end, freshwater harmful algae as treated group include blue-green algae, cyanobacteria microcystis aeruginosa, dolichospermum circinale, aphanizomenon sp., and pseudoanabaena sp., diatoms, stephanodiscus hantzschii, and synedra sp., and green algae, scenedesmus sp., and seawater harmful algae includes trichodesmium sp., alexandrium tamarens, cochlodinium polykrikoides, prorocentrum minimum, and heterosigma akashiwo which are blue-green algae, and pseudo-nitzschia pungens fungens which is diatoms. […]
(§2) Reviewing the details of the experiment, in the case of freshwater species, 5 mL of each culture line was prepared so that the cell density was 5.0×10^3-9.0×10^4 cells/mL, and in the case of seawater species, was prepared so that the cell density was 1.0×10^2-1.0×10^4 cells/mL. […] Counting of the number of cells was performed through an SR-chamber or a hemocytometer under an upright or inverted microscope, and by counting the number of cells after 24 hours, 48 hours, and 72 hours, the reduction ratio of cells compared to before treatment, that is, algal activity (%) was calculated using the following [Equation 1]. […]
(§3) Based on the above [Formula 1], the algal activity of the compound was expressed as 60% or less, 60 to 80%, 80% or more. […]

The next series concerns dolichospermum. The series is described as above. The series is classed as cell-based, dolichospermum circinale. The settings on record: concentration of 1 μM or more. Here is the method:
as §1, §2, §3

Another series deals with aphanizomenon. Described as above. The settings on record: concentration of 2 μM or more. The series is classed as cell-based, aphanizomenon sp. The protocol:
as §1, §2, §3

The test system of series [1] is cochlodinium polykrikoides. Described as above. The series is classed as cell-based. The settings on record: concentration of 1 μM or more. Here is the method: (§4) The harmful algae algal effect at various inoculation concentrations of the compounds according to an example of the present disclosure was measured. To this end, freshwater harmful algae as treated group include blue-green algae, cyanobacteria microcystis aeruginosa, dolichospermum circinale, aphanizomenon sp., and pseudoanabaena sp., diatoms, stephanodiscus hantzschii, and synedra sp., and green algae, scenedesmus sp., and seawater harmful algae includes trichodesmium sp., alexandrium tamarens, cochlodinium polykrikoides, prorocentrum minimum, and heterosigma akashiwo which are blue-green algae, and pseudo-nitzschia pungens fungens which is diatoms. The culture conditions are shown in [Table 1] below.
(§5) Reviewing the details of the experiment, in the case of freshwater species, 5 mL of each culture line was prepared so that the cell density was 5.0×10^3-9.0×10^4 cells/mL, and in the case of seawater species, was prepared so that the cell density was 1.0×10^2-1.0×10^4 cells/mL. After preparing each culture, the compounds specified as [Chemical Formula 1] prepared according to Examples were inoculated at various concentrations, and are treated so that the final concentrations were 1, 2, and 6 μM, respectively. Then, the compositions were cultured under the culture conditions of [Table 1], and cultured under continuous light conditions and observed for 72 hours. Counting of the number of cells was performed through an SR-chamber or a hemocytometer under an upright or inverted microscope, and by counting the number of cells after 24 hours, 48 hours, and 72 hours, the reduction ratio of cells compared to before treatment, that is, algal activity (%) was calculated using the following [Equation 1].
(§6) Algal activity (%)=(1−Tt/Ct)×100 [Equation 1]
(§7) In this case, in [Equation 1], T represents the density of cells after treating the compound, C represents the density of cells not treating the compound, and t represents the culture time.
(§8) Based on the above [Formula 1], the algal activity of the compound was expressed as 60% or less, 60 to 80%, 80% or more. When the algal activity reached 80% within 48 hours at any compound concentration, it was determined that there was an effect at a concentration higher than that and the high concentration experiment was stopped.

The test system of the next series is diatoms. The series is described as above. Conditions: 1, 2 and 6 μM, up to 72 hours. The series is classed as cell-based. The protocol: as §4, §5, §6, §7, §8
Another series has as its system green algae. Described as above. The class given is cell-based. The settings on record: 1, 2 and 6 μM, up to 72 hours. The protocol:
as §4, §5, §6, §7, §8

The next series relates to heterosigma akashiwo. Described as above. The class given is cell-based. The settings on record: concentration of 2 μM or more. Here is the method: as §4, §5, §6, §7, §8
In a further series the test system is alexandrium tamarence. The series is described as above. The series is classed as cell-based, alexandrium tamarens. The settings on record: concentration of 1 μM or more. Here is the method: as §1, §2, §3
Another series concerns akashiwo sanguinea. The series is described as above. The class given is cell-based. The settings on record: concentration of 6 μM or more.
The next series has as its system Synedra. The description is as above. The class given is cell-based, synedra sp. Conditions: 1 μM, second day; cell growth observed again afterwards. Here is the method:
as §1, §2, §3

The subject of a further series is Scenedesmus. The series is described as above. The series is classed as cell-based, scenedesmus sp. The settings on record: 1, 2 and 6 μM, up to 72 hours. The protocol:
as §1, §2, §3

The subject of series [2] is luminescent bacteria (vibrio fischeri). The series is described as follows: Ecotoxicity test, relative luminescence of luminescent bacteria. The series is classed as cell-based. Conditions: for relative luminescence of the luminescent bacteria: supernatant of microcystis aeruginosa culture treated at 1 μM. Here is the method: In order to investigate the effect of the compound according to an example of the present disclosure, that is, a composition according to [Chemical Formula 1] on the ecosystem, biotoxicity evaluation indicator organisms such as luminescent bacteria (vibrio fischeri) and daphnia (Daphnia magna) was used to evaluate the ecotoxicity.
First, in the case of the luminescent bacteria, an experiment was conducted according to the water pollution process test method, and as a sample for ecotoxicity evaluation, the compound specified in Example 1 was added to the blue-green algae, microcystis aeruginosa (10,488 cells/mL) at a concentration of 1 μM, and then, the supernatant was taken after 24 hours, 48 hours, and 72 hours and the luminescent bacteria were injected. Thereafter, the relative luminescence of the treated group compared to the control group was measured to confirm the luminescence reduction effect, and thus, the toxicity of each sample was evaluated.

Series [3] can be described thus: Biodegradability in on-site stream water (UHPLC-DAD). The class given is physicochemical. Conditions: Jungnangcheon stream water, 6.5 μM input, 20° C. Here is the method:
An experiment was performed to evaluate the biodegradability in the water system of the compound of [Chemical Formula 1] according to the example of the present disclosure. First, on-site water from the Jungnangcheon stream in Seoul was collected and sprayed so that the concentration of the substance was 6.5 μM, and then acclimatized to a constant temperature condition of 20° C. The experimental volume was 350 mL, and samples were taken at intervals of 1-3 days, and 5 mL was taken per one time. This sample was filtered with a GF/F filter and stored frozen, and then melted at room temperature for analysis, filtered again with a 0.45 μm nylon filter, and then proceeded under the following analysis conditions. • Equipment: Agilent 1290 Infinity (UHPLC-DAD) • Column: Eclipse Puls-[…] (4.6 mm*100 mm*3.5 μm) • Column temperature: 40° C. • Mobile phase: Isocratic=>A: 0.1% phosphoric acid in D.W, B: ACN=70:30 • Analysis time: 7 min • Flow rate: 1.0 mL/min • Detector: DAD Detector (measurement waveform: 260 nm) • Injection volume: 1 μL

A short description of series [4]: Solubility in organic solvents. The series is classed as physicochemical. The text has this:
Therefore, diethyl ether (Et2O) is recommended for washing.

`CCN(CC)CCNC1=CC(=O)c2ccccc2C1=O` [Chemical Formula 1, 2-((2-(diethylamino)ethyl)amino)naphthalene-1,4-dione HCl]: the “algal effect (killed)” value with microcystis and with dolichospermum was at least 90% each time. The compound also registered an algae effect in the series on aphanizomenon of at least 80%. In addition, the algal effect result in series [1] was “more than 90%”; with diatoms, “insignificant”; in the series on green algae, “insignificant”; in the series on heterosigma akashiwo, “more than 90%”; in the series on alexandrium tamarence, “more than 90%”; in the series with akashiwo sanguinea, “more than 80%”. For the same compound, the algal effect is reported as 70% in the series with Synedra and “hardly observed” in the series on Scenedesmus. Besides, the “relative luminance versus control group” value in series [2] (sample added at 1 μM) is on record as “did not differ from that of the control group”. The “relative luminescence of the luminescent bacteria” value in series [2] (after 24 hours), in series [2] (after 48 hours) and in series [2] (after 72 hours) was 100% each time. Besides, the “concentration of the substance relative to the initial input concentration” value in [3] (7th day) came to 70%. In addition, the “concentration of the substance” value in [3] (until the first 2 days) is “maintained at the input concentration level”. The solubility result is listed as “slightly dissolved” in [4] (1,4-dioxane), “well dissolved” in series [4] (dimethyl sulfoxide (DMSO)) and “slightly dissolved” in series [4] (ethanol (EtOH)).

These data come from patent publication US20220144752A1, “WATER-SOLUBLE NAPHTHOQUINONE DERIVATIVE COMPOSITION AND METHOD FOR PRODUCING SAME, WATER-SOLUBLE COMPOSITION FOR CONTROLLING HARMFUL ALGAE, METHOD FOR CONTROLLING LARGE-SCALE HARMFUL ALGAE, AND AUTOMATION SYSTEM FOR AI-MONITORING, REMOVING, AND PREVENTING LARGE-SCALE HARMFUL ALGAE” (priority 2019, published 2022).
